The values below come from patent US5034528A, “Compositions for the control of hyperlipidemia” (North Carolina Central University, priority 1988, dated 1991).

Data set [1] deals with serum cholesterol and serum triglyceride levels. Put plainly: Testing of normal mice: serum cholesterol and serum triglyceride levels, compounds 20 mg/kg/d ip for 16 days. The settings on record: CF1 male mice; for response vs control in vivo at 20 mg/kg/day: Mus musculus. In kind it is in vivo. The method, then:
The following compounds were tested for their hypolipidemic activity in CF1 mice.
Compounds A-V as defined above, were suspended in an aqueous 1 percent carboxymethylcellulose (CMC) solution and homogenized. Each of the so prepared compounds were administered to a group of six CF1 male mice, each weighing approximately 25 grams, intra-peritioneally for 16 days. Each of these compounds were provided in a dosage of 20 mg/kg/d ip. On Days 9 and 16 blood was obtained by tail vein bleeding. The blood serum so obtained was separated by centrifugation for three minutes. Serum cholesterol levels were determined by a modification of the Liebermann-Burchard reaction (Ness, Clin. Chim. Acta., Vol. 10, 229 [1964]). Serum triglyceride levels were determined on Day 16 by use of the Fisher, Hycel Triglyceride Test Kit.
In addition to the above-described treated mice, an untreated control group of six mice were similarly tested on Days 9 and 16 to determine their serum cholesterol and trigylceride blood levels. Based on the results obtained for the untreated control group, the percent control, based on serum cholesterol and serum triglyceride levels of the treated mice compared to the untreated mice, was obtained. Table 1 reports this percent control, including standard deviation, indicating the level of confidence of these numbers.

Data set [2] has the same test system. Put plainly: Testing of hyperlipidemic mice: serum cholesterol and serum triglyceride levels on atherogenic diet. In kind it is in vivo. The settings on record: hyperlipidemic CF1 male mice, 20 mg/kg/d ip, Day 12; diet-hyperlipidemic = 100. The method, then:
A group of six CF1 male mice (about 25 g) were placed on a commercial diet (U.S. Biochemical Corporation BAsal Atherogenic Test Diet) which produced a "hyperlipidemic" state. That is, the average serum cholesterol level in the group of treated mice was raised from 122 to 375 mg percent and triglyceride levels were raised from 137 to 367 mg/dL.

Data set [3] concerns serum cholesterol and triglyceride levels. Put plainly: Serum testing of normal rats: serum cholesterol and triglyceride levels, oral. In kind it is in vivo. The settings on record: Sprague-Dawley male rats, 20 mg/kg/day orally. From the text: Test solution of Compounds A, F, J, M, N and O were suspended in an aqueous solution of 1% CMC, homogenized and administered orally to six Sprague-Dawley male rats, which each weighted approximately 350 grams. Administration of the compounds was by an intubation needle. The rats were each fed with 20 milligrams of Compounds A, F, J, M, N and O per kilogram of body weight per day for 14 days. Similarly, six Sprague-Dawley male rats of approximately the same weight (that used for testing F weighed approximately 160 grams) were fed similar volumes of the same aqueous 1% CMC solution without the active agents, also orally, administered by intubation needle. In addition, as a control, a similar group of six male Sprague-Dawley rats were untreated.
On Days 7 and 14, blood was obtained from each of the rats of the three groups by tail vein bleeding. The blood obtained was separated by centrifugation for three minutes. Serum cholesterol and triglyceride levels were determined in accordance with the procedure of Example 6.

In data set [4] the test system is cholesterol content of serum lipoprotein (VLDL, LDL, HDL). The data set is described as follows: Cholesterol content of serum lipoprotein of rats treated orally for 14 days. In kind it is in vivo. The settings on record: Sprague-Dawley rats, orally 14 days, 20 mg/kg/day; control 1% CMC = 100. The method, then:
The cholesterol content of serum lipoprotein of
Sprague-Dawley Rats treated orally for 14 days at 20 mg/kg/day

For a further data set, the system named is mice. The data set is described as follows: LD50 in mice as single injection IP.
A further data set can be described thus: in vivo. Particulars: mouse, ip.
The mark [5] stands for this setting: 216 h, Day 9, ± standard deviation, read-out: Serum Cholesterol, Day 9 (percent control).
[6] abbreviates: 384 h, Day 16, ± standard deviation, read-out: Serum Cholesterol, Day 16 (percent control).
The mark [7] stands for this setting: 384 h, Day 16, ± standard deviation, read-out: Serum Triglyceride, Day 16 (percent control).

Read-outs that look alike come from different tables or passages of the source. A value given as a limit tells only on which side of the number the result lay.

Turning to `O=C(Nc1ccccc1)n1[nH]c(=O)n(-c2ccccc2)c1=O` [I, 4-phenyl-1-N-phenylcarbamoyl-1,2,4-triazolidine-3,5-dione], the figures for the response vs control in vivo at 20 mg/kg/day in data set [1] (setting [5]), in data set [1] (setting [6]) and in data set [1] (setting [7]) were 79 ± 7%, 74 ± 6% and 68 ± 6%, respectively.

For `CCOC(=O)C1n2c(=O)n(-c3ccc(Cl)cc3)c(=O)n21` [L, 3-(4-chlorophenyl)-6-ethoxyacarbonyl-1,3,5-triazabicyclo[3.1.0]hexane-2,4-dione], the “Serum Cholesterol, Day 9 (percent control)” value in data set [1] (Day 9, ± standard deviation) stood at 74 ± 3 percent control. Further, in data set [1] (Day 16, ± standard deviation), the “Serum Cholesterol, Day 16 (percent control)” value is 56 ± 5 percent control and the “Serum Triglyceride, Day 16 (percent control)” value came to 66 ± 7 percent control.

On to `O=c1[nH][nH]c(=O)n1-c1ccc(Cl)cc1` [J, 4-(4-chlorophenyl)-1,2,4-triazolidine-3,5-dione], for which, in data set [2], the “Serum Cholesterol, Percent of Control, hyperlipidemic mice” value (shortened to “Serum Cholesterol, Percent of Control”) is 46% of Control and the “Serum Triglyceride, Percent of Control, hyperlipidemic mice” value (shortened to “Serum Triglyceride, Percent of Control”) is recorded as 49% of Control. In data set [3], the “Serum Cholesterol, Day 7, Percent of Control” value was 59% of Control; the “Serum Triglyceride, Day 7, Percent of Control” value was 61% of Control; the “Serum Cholesterol, Day 14, Percent of Control” value is given as 60% of Control; the “Serum Triglyceride, Day 14, Percent of Control” value is reported as 52% of Control. Also, in data set [4], the “HDL cholesterol, Percent of Control” value is reported as 194% of Control; the “LDL cholesterol, Percent of Control” value is 43% of Control; the “VLDL cholesterol, Percent of Control” value was 98% of Control.

Take `CCOC(=O)C1n2c(=O)n(-c3ccccc3)c(=O)n21` [M, 3-phenyl-6-ethoxycarbonyl-1,3,5-triazabicyclo[3.1.0]hexane-2,4-dione]: the “Serum Cholesterol, Day 9 (percent control)” value in data set [1] (Day 9, ± standard deviation) was 62 ± 6 percent control. Also, in data set [1] (Day 16, ± standard deviation), the “Serum Cholesterol, Day 16 (percent control)” value is given as 57 ± 5 percent control and the “Serum Triglyceride, Day 16 (percent control)” value was determined as 59 ± 6 percent control. In addition, in data set [2], the “Serum Cholesterol, Percent of Control” value is reported as 46% of Control and the “Serum Triglyceride, Percent of Control” value was 54% of Control. In data set [3], the “Serum Cholesterol, Day 7, Percent of Control” value is recorded as 70% of Control; the “Serum Triglyceride, Day 7, Percent of Control” value was 36% of Control; the “Serum Cholesterol, Day 14, Percent of Control” value is recorded as 36% of Control; the “Serum Triglyceride, Day 14, Percent of Control” value is listed as 54% of Control. In data set [4], the “HDL cholesterol, Percent of Control” value is 340% of Control; the “LDL cholesterol, Percent of Control” value is 67% of Control; the “VLDL cholesterol, Percent of Control” value is reported as 71% of Control. Besides, the “LD50 value in mice as single injection IP” value in the data set with mice was > 500 mg/kg.

With `CCOC(=O)c1nc(=O)n(-c2ccccc2)c(=O)[nH]1` [Compound N, 3-phenyl-6-ethoxycarbonyl-1,3,5-triazine-2,4(1 --H,3 --H)-dione], in data set [2], the “Serum Cholesterol, Percent of Control” value is listed as 50% of Control and the “Serum Triglyceride, Percent of Control” value is given as 46% of Control. Also, in data set [3], the “Serum Cholesterol, Day 7, Percent of Control” value is reported as 71% of Control; the “Serum Triglyceride, Day 7, Percent of Control” value is given as 61% of Control; the “Serum Cholesterol, Day 14, Percent of Control” value is listed as 67% of Control; the “Serum Triglyceride, Day 14, Percent of Control” value is on record as 53% of Control. Besides, in data set [4], the “HDL cholesterol, Percent of Control” value is 409% of Control and the “LDL cholesterol, Percent of Control” value is 87% of Control. Also, the 50% lethal dose (LD50) in “in vivo” is > 500 mg/kg.

In the case of `CC(=O)n1[nH]c(=O)n(-c2ccccc2)c1=O` [A, 4-phenyl-1-methylcarbonyl-1,2,4-triazolidine-3,5-dione], in data set [2], the “Serum Cholesterol, Percent of Control” value was 41% of Control and the “Serum Triglyceride, Percent of Control” value is reported as 40% of Control. In data set [3], the “Serum Cholesterol, Day 7, Percent of Control” value is given as 89% of Control; the “Serum Triglyceride, Day 7, Percent of Control” value is reported as 62% of Control; the “Serum Cholesterol, Day 14, Percent of Control” value is 69% of Control; the “Serum Triglyceride, Day 14, Percent of Control” value is reported as 48% of Control. Further, in data set [4], the “HDL cholesterol, Percent of Control” value is recorded as 441% of Control; the “LDL cholesterol, Percent of Control” value was 74% of Control; the “VLDL cholesterol, Percent of Control” value is 44% of Control.

Take `CCOC(=O)c1nc(=O)n(-c2ccc(Cl)cc2)c(=O)[nH]1` [O, 3-(4-chlorophenyl)-6-ethoxycarbonyl-1,3,5-triazine-2,4(1H,3 --H)-dione]: in data set [3], the “Serum Cholesterol, Day 7, Percent of Control” value is on record as 84% of Control; the “Serum Triglyceride, Day 7, Percent of Control” value is listed as 82% of Control; the “Serum Cholesterol, Day 14, Percent of Control” value is 60% of Control; the “Serum Triglyceride, Day 14, Percent of Control” value is reported as 77% of Control. Further, in data set [4], the “HDL cholesterol, Percent of Control” value was 113% of Control; the “LDL cholesterol, Percent of Control” value was 78% of Control; the “VLDL cholesterol, Percent of Control” value is 27% of Control.

Consider `CCCCCC(=O)n1c(=O)n(CCCC)c(=O)n1C(=O)CCCCC` [T, 4-(4-n-butyl)-1,2 dipentylcarbonyl-1,2,4-triazolidine-3,5-dione], for which the response vs control in vivo at 20 mg/kg/day in data set [1] (setting [5]) was 69%; in data set [1] (setting [6]) it was 49%; in data set [1] (setting [7]) it was 53%.

With `COc1ccc(-n2c(=O)[nH][nH]c2=O)cc1` [F, 4-(4-methoxyphenyl)-1,2,4-triazolidine-3,5-dione], in data set [3], the “Serum Cholesterol, Day 7, Percent of Control” value is 77% of Control; the “Serum Triglyceride, Day 7, Percent of Control” value was 87% of Control; the “Serum Cholesterol, Day 14, Percent of Control” value was 66% of Control; the “Serum Triglyceride, Day 14, Percent of Control” value is given as 81% of Control. In addition, in data set [4], the “HDL cholesterol, Percent of Control” value is given as 141% of Control; the “LDL cholesterol, Percent of Control” value is listed as 78% of Control; the “VLDL cholesterol, Percent of Control” value is 59% of Control.
